Reference: PMC4027054 (Journal of medicinal chemistry, 2013)
“Also recorded” adds a separate entry of the source.

Experiments:
WT HIV-1 = format: cell-based; conditions: for antiviral activity in the single replication cycle assay: concentrations up to 10 μM, data not shown
HIV-1 IIIB = experiment: microbe, parasite or virus in culture; format: cell-based; conditions: Human immunodeficiency virus 1, IIIB, CEM-SS, read-out: Inhibition % @ 10 μM
[1] = Compound cytotoxicity / cell viability in the cytoprotection assay; format: cell-based; conditions: human, CEM-SS cells
[2] = molecular target: AZT-resistant HIV-1 RT (AZTr) D67N/K70R/T215F/K219Q (Human immunodeficiency virus type 1 group M subtype B, UniProt P03366, D666N/K669R/K818Q/T814F); format: biochemical; conditions: ATP-mediated excision by AZTr RT; chain-terminated primer
[3] = tested on: AZT-resistant HIV (D67N/K70R/T215F/K219Q); experiment: Single replication cycle antiviral assay, AZT-resistant virus; format: cell-based; conditions: read-out: EC50 AZTr HIV
[4] = tested on: NNRTI-resistant HIV (L100I/K103N); format: cell-based; conditions: read-out: EC50 NNRTIr HIV

## Cc1cn([C@H]2C[C@H](n3nncc3-c3ccc(-c4ccccc4)cc3)[C@@H](CO)O2)c(=O)[nH]c1=O [Compound 18j, 1-((2R,4S,5S)-4-(5-([1,1’-Biphenyl]-4-yl)-1H-1,2,3-triazol-1-yl)-5-(hydroxymethyl)tetrahydrofuran-2-yl)-5-methylpyrimidine-2,4(1H,3H)-dione]
WT HIV-1
  antiviral activity in the single replication cycle assay: none showed significant antiviral activity

## Cc1cn([C@H]2C[C@H](n3nncc3C3CCCCC3)[C@@H](CO)O2)c(=O)[nH]c1=O [Compound 18l, 1-((2R,4S,5S)-4-(5-Cyclohexyl-1H-1,2,3-triazol-1-yl)-5-(hydroxymethyl)tetrahydrofuran-2-yl)-5-methylpyrimidine-2,4(1H,3H)-dione]
HIV-1 IIIB
  inhibition at 10 µM: 100%
[1]
  viability at 6 days, 10 µM: 100%
WT HIV-1
  antiviral activity in the single replication cycle assay: did not produce significant antiviral activity; also recorded: none showed significant antiviral activity

## Cc1cn([C@H]2C[C@H](n3nncc3-c3ccc(Cl)c(Cl)c3)[C@@H](CO)O2)c(=O)[nH]c1=O [Compound 18n, 1-((2R,4S,5S)-4-(5-(3,4-Dichlorophenyl)-1H-1,2,3-triazol-1-yl)-5-(hydroxymethyl)tetrahydrofuran-2-yl)-5-methylpyrimidine-2,4(1H,3H)-dione]
WT HIV-1
  antiviral activity in the single replication cycle assay: none showed significant antiviral activity

## Cc1cn([C@H]2C[C@H](n3nncc3-c3cccc4ccccc34)[C@@H](COP(=O)([O-])OP(=O)([O-])OP(=O)([O-])[O-])O2)c(=O)[nH]c1=O.[Na+].[Na+].[Na+].[Na+] [Compound 21a]
[2]
  rate of nucleotide excision of the terminal nucleotide: 0.0126 min⁻¹

## Cc1cn([C@H]2C[C@H](n3nncc3COc3cccc4ccccc34)[C@@H](CO)O2)c(=O)[nH]c1=O [Compound 9c, 1-((2R,4S,5S)-5-(Hydroxymethyl)-4-(5-((naphthalen-1-yloxy)methyl)-1H-1,2,3-triazol-1-yl)tetrahydrofuran-2-yl)-5-methylpyrimidine-2,4(1H,3H)-dione]
WT HIV-1
  antiviral activity in the single replication cycle assay: none showed significant antiviral activity

## COc1ccc2cc(OCc3cnnn3[C@H]3C[C@H](n4cc(C)c(=O)[nH]c4=O)O[C@@H]3CO)ccc2c1 [Compound 9e, 1-((2R,4S,5S)-5-(Hydroxymethyl)-4-(5-(((6-methoxynaphthalen-2-yl)oxy)methyl)-1H-1,2,3-triazol-1-yl)tetrahydrofuran-2-yl)-5-methylpyrimidine-2,4(1H,3H)-dione]
WT HIV-1
  antiviral activity in the single replication cycle assay: none showed significant antiviral activity

## Cc1cn([C@H]2C[C@H](n3nncc3-c3ccc(Oc4ccccc4)cc3)[C@@H](CO)O2)c(=O)[nH]c1=O [Compound 18i, 1-((2R,4S,5S)-5-(Hydroxymethyl)-4-(5-(4-phenoxyphenyl)-1H-1,2,3-triazol-1-yl)tetrahydrofuran-2-yl)-5-methylpyrimidine-2,4(1H,3H)-dione]
WT HIV-1
  antiviral activity in the single replication cycle assay: none showed significant antiviral activity

## 3’-Azidothymidine [AZT, reference compound]
WT HIV-1; read-out: Single Replication Cycle Assay EC50, WT HIV, WT HIV-1, P4R5 cells
  EC50: 140 nM
[3]
  EC50: 7.9 µM
[4]
  EC50: 120 nM
[2]
  rate of nucleotide excision of the terminal nucleotide: 0.024 min⁻¹
